# Where two headings read alike, the source gives them in different places.
# Tests used:
# [1] = test system: human gastric cancer MKN-45; experiment: Effect on human gastric cancer MKN-45 solid tumor transplanted under the skin of mice; format: in vivo; conditions: Mus musculus, MKN-45, iv, total dose at which tumor growth was inhibited by 75%, injection into the caudal vein, read-out: GID75 (mg/kg total)
# Experimental: A MKN-45 solid tumor which had previously been grown by transplantation under the skin of a nude mouse was minced, and 3 mm cubes of the tumor were transplanted under the skin of mice used for this test. Starting from the time when the transplanted tumor grew to 0.3 cm^3, a treatment was carried out by injecting a dose of each test drug into the caudal vein of the mice, once a day, for 5 consecutive days and, after two days' pause, injecting the test drug for 5 days (treatment schedule: 5/w x 2) or four times at intervals of 3 or 4 days (treatment schedule: 2/w x 2). Twenty or thirty-two days after the start of the treatment, the larger diameter (L) and smaller diameter (W) of the tumor were measured, and its volume (V) was determined ( […] [formula] ). The degree of tumor growth inhibition was calculated from this volume, and the total dose at which the tumor growth was inhibited by 75% (GID75, mg/kg) was determined.
# [2] = test system: human gastric cancer cells (MKN-45); experiment: Growth-inhibiting activity (CTX) against cancer cells, Thiazoyl Blue assay; format: cell-based; conditions: MKN-45 cells, 72 hours incubation with test compound, absorbance at 560 nm
# Experimental: (§1) 50 µl of a cell culture medium (RPMI-1640 medium containing 10% bovine fetal serum) containing 1 x 10^3 mouse leukemia cells (P388), human gastric cancer cells (MKN-45), human pulmonary cancer cells (PC-13) or human rectal cancer cells (DLD-1) was pipetted into the wells of a 96-well microplate, and incubated at 37°C under 5% CO2 for 24 hours. Then, 50 µl of a test solution containing each test compound was added, and the culture medium was further incubated at 37°C under 5% CO2 for 72 hours. After 10 µl of 0.5% Thiazoyl Blue was added to the culture medium, an enzyme reaction was carried out by incubating the culture medium at 37°C under 5% CO2 for 2 hours. After the reaction was stopped by the addition of 20% sodium dodecyl sulfate (SDS), the culture medium was further incubated at 37°C for 16 hours to dissolve the pigment so formed. Then, the absorbances at 560 nm were measured and compared with that obtained in a control group. The compound of the formula [drawing 7] was used as the control compound.
# [3] = test system: human pulmonary cancer cells (PC-13); experiment: as above; format: cell-based; conditions: PC-13 cells, 72 hours incubation with test compound, absorbance at 560 nm
# Experimental: as §1
# [4] = test system: mouse leukemia cells (P388); experiment: as above; format: cell-based; conditions: 72 hours incubation with test compound, absorbance at 560 nm
# Experimental: as §1
# [5] = test system: human rectal cancer cells (DLD-1); experiment: as above; format: cell-based; conditions: DLD-1 cells, 72 hours incubation with test compound, absorbance at 560 nm
# Experimental: as §1
IC50 [2] [µM],IC50 [3] [µM],IC50 [4] [µM],IC50 [5] [µM],SMILES,ED75 ([1]; treatment schedule 5/w x 2) [mg/kg],ED75 ([1]; treatment schedule 2/w x 2) [mg/kg]
0.29,0.34,0.037,0.67,O=C1c2c(c3c4cccc(O)c4n([C@@H]4O[C@H](CO)[C@@H](O)[C@H](O)[C@H]4O)c3c3[nH]c4c(O)cccc4c23)C(=O)N1NC(CO)CO [Compound [I-A]],27,
0.5,1.4,0.12,73,"O=CNN1C(=O)c2c(c3c4cccc(O)c4n([C@@H]4O[C@H](CO)[C@@H](O)[C@H](O)[C@H]4O)c3c3[nH]c4c(O)cccc4c23)C1=O [Control compound, reference compound]",170,

SMILES,IC50 [2] [µM],IC50 [3] [µM],IC50 [4] [µM],IC50 [5] [µM],ED75 ([1]; treatment schedule 5/w x 2) [mg/kg],ED75 ([1]; treatment schedule 2/w x 2) [mg/kg]
O=C1c2c(c3c4ccc(O)cc4n([C@@H]4O[C@H](CO)[C@@H](O)[C@H](O)[C@H]4O)c3c3[nH]c4cc(O)ccc4c23)C(=O)N1NC(CO)CO [Compound [I-B]],0.011,0.035,0.002,0.1,,3

# — patent publication EP0760375A1, “ANTITUMOR INDOLOPYPROLOCARBAZOLE DERIVATIVE” (BANYU PHARMACEUTICAL CO., LTD., priority 1994, dated 1995)
